Tests used:
Type in all cases: cell-based, human
T98G glioma cells [1] = experiment: Cell migration assay, modified Boyden chamber, TWEAK induced; details: 10 μM, 5 hours
Description: Cell Migration Assay. The effect of pharmacological inhibition of TWEAK/Fn14 signaling on glioma cell migration was analyzed using a modified Boyden chamber (Neuroprobe, Cabin John, Md.) as described previously (Lamszus, K., et al. (1998) Journal international du cancer 75, 19-28; Brockmann, M. A., et al. (2003) Neurosurgery 52, 1391-1399). Each well contains a […] pore size Nucleopore filter that had been coated with 50 μg/mL PureCol® (Bovine Collagen) (Advanced Biomatrix, Poway, Calif.). T98G glioma cells were treated with selected drug compound for 1 hr and then seeded at 4.8×10^4 cells in 100 μL of DMEM with 0.1% bovine serum assay medium to the top well of the chamber. TWEAK was added to the lower wells of the chamber using DMEM with 0.1% bovine serum albumin as assay medium. After incubation for 5 hours at 37° C., nonmigrated cells were scraped off the upper side of the filter, and filters were stained with 4′,6-diamidino-2-phenylindole (DAPI). Nuclei of migrated cells were counted in 5 high-power fields (HPF) with a 20× objective. Values were assessed in triplicate.

[2] = tested on: TNFα-induced NF-κB activity; experiment: Counter-screen NF-κB luciferase assay, NF-κB-Luc reporter cells stimulated with TNFα
Description: Briefly, Fn14-NF-κB-Luc reporter cells, (Fn14 overexpressing HEK293 NF-κB luciferase cells), were seeded in tissue culture treated white 96-well plates at 1×10^4 cells/well in 80 μL Opti-MEM media (Invitrogen) and incubated for 48 hr at 37° C. After 48 hr incubation, 10 μL of the drug solution (200 μM) in DMSO was added to the designated wells at a final concentration of 20 μM. After 1 hr of drug incubation at 37° C., 10 μL of 10× purified recombinant TWEAK (Peprotech Inc.; 300 ng/mL) in 1 mg/mL BSA in PBS was added to each well and incubated for 5 hr at 37° C. DMSO alone was used as a negative control whereas anti-TWEAK antibody suspended in DMSO was used as a positive control for the assay. Luminescent signal was determined using Bright-Glo assay kit (Promega, Madison, Wis.) according to the manufacturer's instructions and normalized to negative control. A counter-screen assay was carried out using TNFα to stimulate NF-κB activity in NF-κB-Luc reporter cells (HEK293 NF-κB luciferase cells). The counter-screen assay was performed similar to the drug screening assay described above, except 10 μL of 10× purified recombinant TNFα (R&D Scientific; 300 ng/mL) in 1 mg/mL BSA in PBS was added to each well instead of TWEAK for NF-κB activation. […] IC50 values for dose response curve were determined using the curve fitting functionality of GraphPad Prism software.

T98G glioma cells [3] = experiment: Cytotoxicity assay, CellTiter-Glo; details: up to 50 μM, 72 hr
Description: Cytotoxicity Assay. Cytotoxic effects of drugs on glioma cells were analyzed by quantifying the ATP, an indicator of metabolically active cells. Briefly, glioma cells were seeded in tissue culture treated white 96-well plates at 3×10^3 cells/well in 80 μL Opti-MEM media (Invitrogen) and incubated for 24 hr at 37° C. After 24 hr incubation, 20 μL of 5× drug solution at required concentration in Opti-MEM was added to each well and incubated for 72 hr at 37° C. Opti-MEM/DMSO mixture without drug was used as negative control and 20 μM staurosporine was used as positive control. At the end of 72 hr incubation, the number of viable cells were quantified by using CellTiter-Glo assay kit (Promega, Madison, Wis.) according to the manufacturer's instructions. Luminescence signal measured was normalized to negative control to determine % cell viability.

## O=C(c1cn(-c2cccc(Cl)c2)nn1)N1CCSCC1 [Compound L524-0366]
T98G glioma cells [1]
  TWEAK-induced T98G cell migration: completely suppressed
[2]; Homo sapiens, NF-κB-Luc cells stimulated with TNFα, 0.75 μM to 250 μM, read-out: IC50, TNFα stimulated luciferase induction
  IC50: 31 µM
[2]; NF-κB-Luc cells, 20 μM
  inhibition of TNFα-induced NF-κB driven luciferase activity: only minor inhibition
T98G glioma cells [3]
  cytotoxicity: did not demonstrate any cytotoxicity

— patent US9238034B2, “FN14 antagonists and therapeutic uses thereof” (THE TRANSLATIONAL GENOMICS RESEARCH INSTITUTE, priority 2013, dated 2016)
